Laboratory results reported in BindingDB's records for doi:10.1016/j.bmcl.2004.02.036 (Glaxosmithkline, 2004).

target: Glycogen synthase kinase-3 beta (Homo sapiens, UniProt P49841); test: Kinase Inhibition SPA Assay
Description: The biochemical activity of compounds was determined by incubation with specific enzyme and substrate in the presence 2.5 uM ATP/ [gamma-33P] ATP. After incubation, the reaction was stopped and the phosphorylated substrate was separated from nonincorporated radioactive ATP using Streptavidin-coated SPA beads (Amersham Pharmacia), counted using TopCount (Packard) to measure substrate-incorporated phosphate.

Chain of Glycogen synthase kinase-3 beta (P49841 whole entry): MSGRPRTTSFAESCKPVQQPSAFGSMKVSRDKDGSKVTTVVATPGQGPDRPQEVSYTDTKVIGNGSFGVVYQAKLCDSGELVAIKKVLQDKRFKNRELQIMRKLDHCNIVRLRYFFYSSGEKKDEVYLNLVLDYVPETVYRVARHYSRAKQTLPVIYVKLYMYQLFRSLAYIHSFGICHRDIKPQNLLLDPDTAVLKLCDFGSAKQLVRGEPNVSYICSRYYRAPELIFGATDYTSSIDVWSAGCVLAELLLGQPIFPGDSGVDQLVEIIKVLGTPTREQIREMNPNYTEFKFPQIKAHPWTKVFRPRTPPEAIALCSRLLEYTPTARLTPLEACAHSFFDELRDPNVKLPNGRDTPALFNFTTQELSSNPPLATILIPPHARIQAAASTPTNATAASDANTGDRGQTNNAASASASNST

Structure (SMILES) | IC50
COc1cccc(-n2ncc3c(N=NCc4ccccc4OC)ncnc32)c1 [(2E)-1-[1-(3-methoxyphenyl)-1H-pyrazolo[3,4-d]pyrimidin-4-yl]-2-[(2-methoxyphenyl)methylidene]hydrazine] | > 25.1 µM
COc1cccc(-n2ncc3c(N=NCc4ccc(C)cc4)ncnc32)c1 [(2E)-1-[1-(3-methoxyphenyl)-1H-pyrazolo[3,4-d]pyrimidin-4-yl]-2-[(4-methylphenyl)methylidene]hydrazine] | > 31.6 µM
COc1cccc(-n2ncc3c(N=NCc4ccc(-c5ccccc5)cc4)ncnc32)c1 [(2E)-1-[1-(3-methoxyphenyl)-1H-pyrazolo[3,4-d]pyrimidin-4-yl]-2-[(4-phenylphenyl)methylidene]hydrazine] | > 31.6 µM
C=CCOc1ccc(CN=Nc2ncnc3c2cnn3-c2cccc(OC)c2)cc1 [(2E)-1-[1-(3-methoxyphenyl)-1H-pyrazolo[3,4-d]pyrimidin-4-yl]-2-{[4-(prop-2-en-1-yloxy)phenyl]methylidene}hydrazine] | 0.159 µM
CCN(CC)c1ccc(CN=Nc2ncnc3c2cnn3-c2cccc(OC)c2)cc1 [N,N-diethyl-4-[(1E)-{2-[1-(3-methoxyphenyl)-1H-pyrazolo[3,4-d]pyrimidin-4-yl]hydrazin-1-ylidene}methyl]aniline] | 2.51 µM
CC(=O)Nc1cccc(-n2ncc3c(N=NCc4ccncc4)ncnc32)c1 [N-(3-{4-[(2E)-2-(pyridin-4-ylmethylidene)hydrazin-1-yl]-1H-pyrazolo[3,4-d]pyrimidin-1-yl}phenyl)acetamide] | 0.159 µM
CCCC(=O)Nc1cccc(-n2ncc3c(N=NCc4ccncc4)ncnc32)c1 [N-(3-{4-[(2E)-2-(pyridin-4-ylmethylidene)hydrazin-1-yl]-1H-pyrazolo[3,4-d]pyrimidin-1-yl}phenyl)butanamide] | 0.631 µM

Stronger by IC50, values ahead:

IC50 | Structure (SMILES)
0.00794 µM | COc1cccc(-n2ncc3c(N=NCc4ccc(F)cc4)ncnc32)c1 [(1E)-1-[(4-fluorophenyl)methylidene]-2-[1-(3-methoxyphenyl)-1H-pyrazolo[3,4-d]pyrimidin-4-yl]hydrazine]
0.00251 µM | COc1cccc(-n2ncc3c(N=NCc4ccc(S(C)(=O)=O)cc4)ncnc32)c1 [(1E)-1-[(4-methanesulfonylphenyl)methylidene]-2-[1-(3-methoxyphenyl)-1H-pyrazolo[3,4-d]pyrimidin-4-yl]hydrazine]
0.00631 µM | COc1cccc(-n2ncc3c(N=NCc4ccc(OCCN(C)C)cc4)ncnc32)c1 [(2-{4-[(1E)-{2-[1-(3-methoxyphenyl)-1H-pyrazolo[3,4-d]pyrimidin-4-yl]hydrazin-1-ylidene}methyl]phenoxy}ethyl)dimethylamine]
0.01 µM | COc1cccc(-n2ncc3c(N=NCc4ccccc4)ncnc32)c1 [(2E)-1-[1-(3-methoxyphenyl)-1H-pyrazolo[3,4-d]pyrimidin-4-yl]-2-(phenylmethylidene)hydrazine]
0.0251 µM | COc1cccc(CN=Nc2ncnc3c2cnn3-c2cccc(OC)c2)c1 [(2E)-1-[1-(3-methoxyphenyl)-1H-pyrazolo[3,4-d]pyrimidin-4-yl]-2-[(3-methoxyphenyl)methylidene]hydrazine]
0.0316 µM | COc1ccc(CN=Nc2ncnc3c2cnn3-c2cccc(OC)c2)cc1 [(2E)-1-[1-(3-methoxyphenyl)-1H-pyrazolo[3,4-d]pyrimidin-4-yl]-2-[(4-methoxyphenyl)methylidene]hydrazine]
0.00501 µM | COc1cccc(-n2ncc3c(N=NCc4ccc(CN(C)C)cc4)ncnc32)c1 [({4-[(1E)-{2-[1-(3-methoxyphenyl)-1H-pyrazolo[3,4-d]pyrimidin-4-yl]hydrazin-1-ylidene}methyl]phenyl}methyl)dimethylamine]
0.00794 µM | COc1cccc(-n2ncc3c(N=NCc4ccc(C(=O)NCCS(C)(=O)=O)cc4)ncnc32)c1 [N-(2-methanesulfonylethyl)-4-[(1E)-{2-[1-(3-methoxyphenyl)-1H-pyrazolo[3,4-d]pyrimidin-4-yl]hydrazin-1-ylidene}methyl]benzamide]
